This note sets out measurements from patent US20240376126A1, “PRMT5 INHIBITOR AND THE USE THEREOF” (CYTOSINLAB THERAPEUTICS CO., LTD., priority 2022, published 2024).

SMILES strings stand for the structures. Like-named read-outs stand apart in the source and are kept apart here.

Assay [1] concerns HCT116-MTAP-KO (MTAP null) cells. The experiment in a line: Proliferation inhibition of HCT116 MTAP-KO cells in vitro (CellTiter Glo, 6 days). The format is cell-based. The settings on record: read-out: Cell proliferation inhibition rate HCT116-MTAP null IC50 (nm). The text has this: (§1) Biological Test Example 2 Proliferation Inhibition of HCT116 and HCT116 MTAP-KO Cells In Vitro
(§2) HCT116 cell line was purchased from the Chinese Academy of Sciences Cell Bank, and the MTAP gene was knocked out by CRISPR/Cas9 technology to obtain HCT116-MTAP-KO cell line.
(§3) McCoy's 5A medium (Gibco, catalog No. 16600082), fetal bovine serum (Gibco, catalog No. 10099141C), penicillin-streptomycin double antibody (Gibco, catalog No. 15140122), pancreatic enzyme (Gibco, catalog No. 25200056), CellTiter Glo assay kit (Promega, catalog No. G7572), 384-well transparent flat-bottomed black walled cell culture plate (Corning, catalog No. 3764), ultra micro sampler (Tecan, catalog No. D300e), Multimode reader (Biotek, catalog No. SynergyHTX)
(§4) • 1. Cell culture: HCT116 and HCT116-MTAP-KO cells were cultured in McCoy'5A medium+10% fetal bovine serum+1% penicillin-streptomycin double antibody; to ensure that they were always in the logarithmic growth phase and the cell viability greater than 95%. • 2. Compound concentration gradient preparation: The compound to be tested was added to a 384-well plate using an ultra micro sampler, starting from 30 μM (HCT116 cells) or 3 μM (HCT116-MTAP-KO cells), and diluted with DMSO at 3 times for a total of 9 concentrations and set up three duplicate wells. • 3. Treatment of cells with compounds: Trypsin-digested HCT116 or HCT116-MTAP-KO cell suspension was added to the 384-well plates spotted with the compounds to be tested at 40 μL per well, i.e., 100 cells per well, and the final concentration of DMSO was 0.4%. The cell culture plate was incubated at 37° C. in a 5% CO2 incubator for 6 days. • 4. Detection: 20 μL of CellTiter Glo reagent was added to each well of the cell culture plate and incubated at room temperature for 30 minutes. A multimode reader was used to detect the luminescence signal at […]. • 5. Data analysis:
(§5) The data was fitted with GraphPad Prism 8.0 software using a four parameter inhibitor-reaction model to obtain the […] (half inhibitory concentration) of the test compounds.
(§6) The first column represents cell proliferation inhibition rate HCT116 MTAP WT IC50 (nm), and the second column represents cell proliferation inhibition rate HCT116-MTAP null IC50 (nm): […]
Background: Cellular ATP, detected with luciferase, serves as a proxy for viable cell number.

The test system of another assay is HCT116 MTAP WT cells. The assay is described as follows: Proliferation inhibition of HCT116 cells in vitro (CellTiter Glo, 6 days). The assay is classed as cell-based. The settings on record: read-out: Cell proliferation inhibition rate HCT116 MTAP WT IC50 (nm).
Text: as §1, §2, §3, §4, §5, §6

As to `C[C@H]1COC[C@@H](c2cc3ccccn3n2)N1C(=O)c1cc2c3c(c(N)nc2cc1F)COC3` [Example 124], the IC50 in assay [1] (HCT116-MTAP null, 144 h) was < 100 nM; with HCT116 MTAP WT cells (Homo sapiens, HCT-116, 144 h), 1000 to 10000 nM.
Turning to `Cc1nn(C)cc1N(Cc1cc2ccc(C(F)(F)F)cn2n1)C(=O)c1ccc2nc(N)c3c(c2c1)COC3` [Example 126], the IC50 in assay [1] (HCT116-MTAP null, 144 h) was < 100 nM; in the assay with HCT116 MTAP WT cells (Homo sapiens, HCT-116, 144 h) it was 1000 to 10000 nM.
The like results for `CC(c1ncccn1)N(Cc1nc2ccccc2[nH]1)C(=O)c1ccc2nc(N)c3c(c2c1)CCC3` (stereo not drawn) [Example 128] were, in that order, 100 to 1000 nM and 100 to 1000 nM.
Consider `COCC(C1CC1)N(Cc1nc2ccccc2[nH]1)C(=O)c1ccc2nc(N)c3c(c2c1)CCC3` (stereo not drawn) [Example 129], for which the IC50 in assay [1] (HCT116-MTAP null, 144 h) was < 100 nM; in the assay with HCT116 MTAP WT cells (Homo sapiens, HCT-116, 144 h) it was 1000 to 10000 nM.
As to `CC(C)N(Cc1nc2ccccc2[nH]1)C(=O)c1ccc2cc(N)c3c(c2c1)CCC3` [Example 130], the IC50 in assay [1] (HCT116-MTAP null, 144 h) was < 100 nM; in the assay on HCT116 MTAP WT cells (Homo sapiens, HCT-116, 144 h) it was 1000 to 10000 nM.
The like results for `CC(C)CN(Cc1nc2ccc(C(F)(F)F)cc2[nH]1)C(=O)c1ccc2nc(N)c3c(c2c1)COC3` [Example 131] were, in that order, 100 to 1000 nM and 1000 to 10000 nM.
For `CC(C)CN(Cc1nc2cc(S(F)(F)(F)(F)F)ccc2[nH]1)C(=O)c1cc2c(cc1F)nc(N)c1cnn(C)c12` [Example 133], in that order: < 100 nM and 100 to 1000 nM.
The like results for `CCN(Cc1nc2ccc(C(F)(F)F)cc2[nH]1)C(=O)c1ccc2nc(N)c3c(c2c1)COC3C` (stereo not drawn) [Example 134] were, in that order, < 100 nM and 1000 to 10000 nM.
As to `CCN(Cc1nc2ccccc2[nH]1)C(=O)c1ccc2nc(N)c3c(c2c1)COC3C` (stereo not drawn) [Example 135], the IC50 in assay [1] (HCT116-MTAP null, 144 h) was 100 to 1000 nM; in the assay on HCT116 MTAP WT cells (Homo sapiens, HCT-116, 144 h), 1000 to 10000 nM.
Regarding `CC(C)CN(Cc1nc2ccccc2[nH]1)C(=O)c1ccc2nc(N)c3c(c2c1)COC3C` (stereo not drawn) [Example 136], the IC50 in assay [1] (HCT116-MTAP null, 144 h) is 100 to 1000 nM; in the assay on HCT116 MTAP WT cells (Homo sapiens, HCT-116, 144 h), 1000 to 10000 nM.
The like results for `Cc1ncc2c(N)nc3cc(F)c(C(=O)N(Cc4nc5ccc(S(F)(F)(F)(F)F)cc5[nH]4)CC(C)C)cc3n12` [Example 139] were, in that order, < 100 nM and 1000 to 10000 nM.
For the compound `CCN(Cc1nc2cc(C(F)(F)F)ccc2[nH]1)C(=O)c1cc2c(cc1F)nc(N)c1cnc(C)n12` [Example 140], the IC50 in assay [1] (HCT116-MTAP null, 144 h) lay in the range of 100 to 1000 nM; in the assay on HCT116 MTAP WT cells (Homo sapiens, HCT-116, 144 h), 1000 to 10000 nM.
Consider `Cc1ncc2c(N)nc3cc(F)c(C(=O)N(Cc4nc5ccc(C(F)(F)F)cc5[nH]4)c4ccnn4C)cc3n12` [Example 142], for which the figures for the IC50 (in assay [1]; in the assay with HCT116 MTAP WT cells) were 100 to 1000 nM and 1000 to 10000 nM, respectively.
Consider `COCC(C1CC1)N(Cc1nc2ccccc2s1)C(=O)c1ccc2nc(N)c(C)cc2c1` (stereo not drawn) [Example 146], for which the IC50 in assay [1] (144 h) was in the range of 100 to 1000 nM; with HCT116 MTAP WT cells (Homo sapiens, HCT-116, 144 h), 1000 to 10000 nM.
As for `COCC(C1CC1)N(Cc1nc2cc(C(F)(F)F)ccc2s1)C(=O)c1ccc2nc(N)c(C)cc2c1` (stereo not drawn) [Example 150], the IC50 in assay [1] (HCT116-MTAP null, 144 h) fell in the range of 100 to 1000 nM; in the assay with HCT116 MTAP WT cells (Homo sapiens, HCT-116, 144 h), 1000 to 10000 nM.
The like results for `COCC(C1CC1)N(Cc1nc2cc(Br)ccc2s1)C(=O)c1ccc2nc(N)c(C)cc2c1` (stereo not drawn) [Example 151] were, in that order, 100 to 1000 nM and 1000 to 10000 nM.
The like results for `CC(c1ncccn1)N(Cc1nc2cc(C(F)(F)F)ccc2s1)C(=O)c1ccc2nc(N)c3c(c2c1)CCC3` (stereo not drawn) [Example 153] were, in that order, 100 to 1000 nM and 1000 to 10000 nM.
For `COCC(C1CC1)N(Cc1nc2cc(C(F)(F)F)ccc2s1)C(=O)c1ccc2nc(N)c3c(c2c1)CCC3` (stereo not drawn) [Example 154], in that order: 100 to 1000 nM and 1000 to 10000 nM.
`CC(c1ncccn1)N(Cc1nc2ccccn2n1)C(=O)c1ccc2nc(N)c3c(c2c1)CCC3` (stereo not drawn) [Example 155]: the IC50 in assay [1] (HCT116-MTAP null, 144 h) fell in the range of 100 to 1000 nM; in the assay with HCT116 MTAP WT cells (Homo sapiens, HCT-116, 144 h), 1000 to 10000 nM.
With `CC(c1ncccn1)N(Cc1cc2n(n1)CCOC2)C(=O)c1ccc2nc(N)c3c(c2c1)CCC3` (stereo not drawn) [Example 156], the IC50 in assay [1] (HCT116-MTAP null, 144 h) lay in the range of 100 to 1000 nM; with HCT116 MTAP WT cells (Homo sapiens, HCT-116, 144 h), 1000 to 10000 nM.
The like results for `CC(c1ncccn1)N(Cc1cn2c(n1)COCC2)C(=O)c1ccc2nc(N)c3c(c2c1)CCC3` (stereo not drawn) [Example 157] were, in that order, 100 to 1000 nM and 1000 to 10000 nM.
